Literature values as cited in patent US20240001339A1, “DRYING PROCESSES FOR BIO-COMPATIBLE SPME COATINGS” (SIGMS-ALDRICH CO. LLC, priority 2020, published 2024).

Key:
[1] = for conventional SPME devices

reference protein binding [1]: 70-80% | Log p: 2.45 | pKa: 13.9
Compound: NC(=O)N1c2ccccc2C=Cc2ccccc21 [Carbamazepine]
